According to patent US7393869B2, “Methods of using thiazolidine derivatives to treat cancer or inflammation” (QLT Inc., priority 2002, dated 2008):

Columns and labels:
PTPN12 = biological target: T1, PTPN12 (Homo sapiens, UniProt Q05209); experiment: In vitro phosphatase assay (malachite green, phosphate release from ppC SRC 60 peptide); format: biochemical; conditions: read-out: Inhibition of PTPN12 IC50
T1 construct: The truncated version was used as it was far easier to handle and gave parallel results to the full length protein; made in house; host or cells: bacterial strain ER2566
T1 sequence (Q05209 28-293 limits assumed): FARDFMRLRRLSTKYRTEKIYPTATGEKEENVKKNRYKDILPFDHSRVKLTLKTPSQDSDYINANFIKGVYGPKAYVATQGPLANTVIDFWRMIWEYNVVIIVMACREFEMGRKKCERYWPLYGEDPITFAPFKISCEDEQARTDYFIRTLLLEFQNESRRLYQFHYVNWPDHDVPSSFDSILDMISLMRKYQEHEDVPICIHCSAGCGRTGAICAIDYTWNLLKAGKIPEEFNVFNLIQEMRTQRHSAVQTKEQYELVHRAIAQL
Source text: Expression of human truncated PTPN12 (PTP-PEST-N) as a fusion protein required that the cDNA be ligated into the polyclonal site situated in frame and upstream of the intein gene of the IMPACT™ expression vector pTWIN-II. The truncated version was used as it was far easier to handle and gave parallel results to the full length protein in comparison testing. For the purpose of simplicity, PTP-PEST-N will be used interchangeably with PTPN12 in these Examples.
Active PTPN12 enzyme is expressed from the IMPACT™ vector system in the bacterial strain ER2566. Recombinant PTPN12 protein is purified from bacterial cells using affinity chromatography on chitin-agarose beads followed by a chemical process whereby PTPN12 is released from its affinity tag. A complete quantitative and qualitative analysis of the protein is monitored using Coomassie-Blue staining of SDS-PAGE separated preparations and by PTPN12-specific western blotting. […]
(§1) The enzyme (phosphatase) activity was determined in a reaction that measured phosphate relase from tyrosine phospho-specific peptides using a method first described by Harder et al., Biochem. J. (1994), Vol. 298, pp. 395-401. […]
(§2) The assay plate was incubated at room temperature (21° C.) for 15 minutes. […] The plate was “read” on Bio-tek Instruments EL312e microplate Bio-Kinetics™ Reader at 590 nm and the data collected as per instrument manual.

PTPN2 = biological target: T2, PTPN2 (Homo sapiens, UniProt P17706); experiment: as above; format: biochemical; conditions: read-out: Inhibition of PTPN2 IC50
T2 construct: made in house; host or cells: bacterial expression system (IMPACT, New England BioLabs)
T2 sequence (P17706 1-415): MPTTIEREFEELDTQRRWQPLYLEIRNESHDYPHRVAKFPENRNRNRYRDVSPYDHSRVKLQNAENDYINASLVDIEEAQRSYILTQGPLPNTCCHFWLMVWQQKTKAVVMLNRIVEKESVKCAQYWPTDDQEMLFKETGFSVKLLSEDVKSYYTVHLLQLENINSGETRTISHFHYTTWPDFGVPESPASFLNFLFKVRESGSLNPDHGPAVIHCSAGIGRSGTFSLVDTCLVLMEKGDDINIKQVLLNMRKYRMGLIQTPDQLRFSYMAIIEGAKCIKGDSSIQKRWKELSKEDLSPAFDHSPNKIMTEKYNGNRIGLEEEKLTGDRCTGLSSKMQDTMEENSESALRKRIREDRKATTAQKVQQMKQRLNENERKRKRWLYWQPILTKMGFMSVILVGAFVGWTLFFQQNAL
Source text: PTPN2 was cloned from a human placental cDNA library in the IMPACT™ (New England BioLabs) bacterial expression system. The technology was first described by Chong et al., Gene (1997), Vol. 192, pp. 271-281. The IMPACT™ Protein Purification System was purchased commercially from New England BioLabs. The resulting product was used in the development of a protein phosphatase assay for high-throughput screening (HTS) of target molecules and in other assays described herein (see Example 2).
This activity was considered to be in the high range as compared to other recombinant protein tyrosine phosphatases assayed. […]
as §1, §2
(§3) The blank and negative controls were read, and blanks were subtracted from the average of negative control values and sample values, and the % inhibition was expressed by the following formula: % Inhibition=100−[corrected sample reading/corrected Negative Control reading*100].

PTPN1 = biological target: T3, PTPN1 (Homo sapiens, UniProt P18031); experiment: as above; format: biochemical; conditions: read-out: Inhibition of PTPN1 IC50
T3 sequence (P18031 1-435): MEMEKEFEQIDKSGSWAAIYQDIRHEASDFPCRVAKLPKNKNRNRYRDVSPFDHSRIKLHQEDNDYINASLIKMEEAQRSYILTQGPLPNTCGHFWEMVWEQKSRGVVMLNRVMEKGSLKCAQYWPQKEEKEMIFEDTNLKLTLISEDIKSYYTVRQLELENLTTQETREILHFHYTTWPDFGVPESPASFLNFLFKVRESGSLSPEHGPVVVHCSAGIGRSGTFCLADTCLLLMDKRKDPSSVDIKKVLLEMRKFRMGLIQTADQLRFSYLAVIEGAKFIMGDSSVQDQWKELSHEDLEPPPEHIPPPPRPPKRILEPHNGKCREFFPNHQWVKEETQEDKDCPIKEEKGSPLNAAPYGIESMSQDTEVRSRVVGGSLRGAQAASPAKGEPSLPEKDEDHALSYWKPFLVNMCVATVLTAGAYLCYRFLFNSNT
Description: Compounds of formula (I) and formula (Ia) were tested in the following assay for their ability to inhibit the activity of the desired phosphatase.
The enzyme (phosphatase) activity was determined in a reaction that measured phosphate relase from tyrosine phospho-specific peptides using a method first described by Harder et al., Biochem. J. (1994), Vol. 298, pp. 395-401. This is a non-radioactive method for measuring free phosphate by the malachite green method first described by Van Veldhoven and Mannaerts, Anal Biochem. (1987), Vol. 161, pp. 45-48. 10× assay buffer (250 mM Tris:100 mM, β-mercaptoethanol, 50 mM EDTA; pH 7.2) was diluted to 5× concentration (conc.) with distilled H2O (dH2O). Then 71.4 μM of substrate working stock solution was prepared in dH2O. […]
as §2, §3

[1] = system: prostate cancer cell line PC3; experiment: Cell migration in a Boyden chamber; format: cell-based; conditions: cell line not given
Source text: A range of cell lines are used in this assay, particularly the prostate cancer cell line PC3 and PTPN12 mouse embryonic fibroblasts (MEFs). The role of PTPN12 in migration was established based on the observations of PTPN12 negative MEFs. Cell adhesion and migration are dynamic biological activities involving the assembly and disassembly of a large number of extracellular and intracellular molecules, for example, actin, which are regulated in turn by protein phosphorylation. […] Migration is reduced in PTPN12 knock-out MEFs. By extension, a PTPN12 inhibitor should reduce cell migration in a Boyden chamber. Therefore, as a readout for PTPN12 activity, the following assay is designed to analyze cell migration in Boyden chambers. […]
For tumour cell lines, stock cells (ie. PC3 cells) are grown to 50-70% confluency in T175 flasks. […] Fluorescence of migrated cells is read in a Fluoroskan Ascent FL™ (or equivalent) with bottom reading at excitation/emission wavelength of 485/538 nm. Only those cells that have migrated through the pores of the FluoroBlok™ membrane will be read. […]
Data is expressed as fluorescence unit (FU) from the sum of middle 25 areas per 24-well or as percentage of migration inhibition by following formula: % of invasion inhibition=100−FU of compound treated cell invasion/FU of DMSO treated cell invasion times 100. […]

H460 Cells = experiment: Cell proliferation (3H-thymidine incorporation); format: cell-based; conditions: Homo sapiens, NCI-H460
Source text: (§4) This procedure (Jelinkova, R. B. et al., “Antiproliferative effect of a lectin- and anti-Thy-1.2 antibody-targeted HPMA copolymer-bound doxorubicin on primary and metastatic human colorectal carcinoma and on human colorectal carcinoma transfected with the mouse Thy-1.2 gene”, Bioconjug. Chem. (2000, September-October), Vol. 11, No. 5, pp. 664-73) is used to assess the effect compounds have on various cell lines with respect to proliferation. The rate of anchorage-independent growth of various tumor cells is quantified by measuring the amount of free isotopic thymidine that has been incorporated into the cells over a period of time. The effect of any compound to inhibit the proliferation of various tumor cells could be used as an indication of its ability to prevent disease progression in cancer.
(§5) Cultured tumour cells are harvested cells as per normal procedures: i.e. trypsinize, centrifuge and count cells. A volume of 90 μL is used to seed 5,000 cells/well in a 96 well plate. Cells are incubated for 24 hours at 37° C. under 5% CO2. After incubation, cells should be 80-90% confluent.
(§6) ^3H-thymidine (Amersham) is diluted in cell culture media to a concentration of 100 μCi/mL. The test compound is diluted in the thymidine broth to 10× the final desired concentration.
(§7) Then 10 μL of diluted compound is added to the 90 μL of cells already present in the 96-well plates. Six replicates wells are done per treatment in columns 2 to 11. Plates were mixed by rocking.
(§8) A known cytotoxic compound such as staurosporine is used in relatively high concentrations as a positive control in column 1. Diluted DMSO is used as a negative control in column 12. The plate is incubated for exactly 24 hours at 37° C.
(§9) After incubation, plates are observed under the microscope for obvious cell death, abnormal cell shape, crystal formation of the compound, etc. Then 25 μL volume of cold 50% TCA is added slowly to the 100 μL volume already in each well, and incubated for 1-2 hours at 4° C. The plates are then washed 5× in tap water and allowed to dry completely (usually overnight) at ambient temperature. Finally, 100 μL of scintillation fluid is added to each well and the plates are counted in a Wallac 1450 Microbeta™ counter according to user manual instructions.
(§10) The amount of inhibition is determined by the following formula: % inhibition=100−[(AVG treatment−AVG positive control)/[…]]

PC3 Cells = experiment: Cell proliferation (3H-thymidine incorporation); format: cell-based; conditions: Homo sapiens, PC-3
Source text: as §4, §5, §6, §7, §8, §9, §10

Row | IC50 (PTPN12) [nM] | IC50 (PTPN2) [nM] | IC50 (PTPN1) [nM] | SMILES | inhibition at 25 µM [1] [%] | inhibition at 50 µM (H460 Cells) [%] | inhibition at 50 µM (PC3 Cells) [%]
1 | 1500 | 1600 | 3000 | Cc1ccc(C=C2SC(=S)N(CCC(=O)Nc3ccc(S(N)(=O)=O)cc3)C2=O)cc1 [3-[5-(4-methylbenzylidene)-4-oxo-2-thioxothiazolidin-3-yl]-N-(4-sulfamoylphenyl)-propionamide] | 55 | 45 | 35
2 | 1100 | 950 | 1500 | Cc1ccc(C=C2SC(=S)N(CCC(=O)Nc3ccc(S(=O)(=O)Nc4nccs4)cc3)C2=O)cc1 [3-[5-(4-methylbenzylidene)-4-oxo-2-thioxothiazolidin-3-yl]-N-[4-(thiazol-2-ylsulfamoyl)-phenyl]-propionamide] | 87 | 43 | 47
